Test results reported in patent US9315451B2, “Tetracycline compounds” (priority 2009, dated 2016).
Where two headings read alike, the source gives them in different places.

Tests used:
Type in all cases: in vivo
[1] = tested on: Uropathogenic E. coli EC200; test: Murine kidney infection model, uropathogenic E. coli EC200; conditions: Escherichia coli, po, 36 h, BALB/c mice, read-out: EC200 UTI PO, log10 reduction in CFUs in the kidney versus untreated controls; for log reduction at 2 mg/kg: PO 2 mg/kg at 12 and 24 hours post infection
Description: (§1) Kidney Infection Models for Uropathogenic E. coli EC200 and K. pneumoniae ESBL Isolate KP453
Compounds were tested in a BALB/c murine kidney infection model challenged with tetracycline-resistant E. coli strain uropathogenic […] via intravenous injection. […] For IV administration test compound was dosed at 3 mg/kg. Thirty-six hours following initiation of treatment, mice were euthanized and bacterial reduction in the kidney was quantified by plating kidney homogenates. Results are reported in Table D as log10 reduction in colony forming units (CFUs) in the kidney versus untreated controls (receiving no test compound).

[2] = tested on: S. aureus Smith (ATCC 13709); test: Mouse systemic infection (septicemia) model, S. aureus Smith; conditions: Staphylococcus aureus; for responders at 3 mg/kg: read-out: SA Smith septicemia survival IV (3 mg/kg); for responders at 30 mg/kg: read-out: SA Smith septicemia survival PO (30 mg/kg); for ED50: dose that prevents 50% of the mice from death, 48 hours
Description: Mouse Systemic Infection Protocol-S. aureus Smith Septicemia
Compounds were screened for antibacterial activity in vivo in a mouse systemic infection (septicemia) model. In the model, CD-1 female mice (18-22 grams) were injected IP with a S. aureus Smith (ATCC 13709) inoculum that results in 0% survival within 24 to 48 hours. The bacterial dose required to achieve this effect was previously established through virulence studies. At one hour post infection, mice received either […] IV or […] PO. Typically, six mice were treated per dose group. Animal survival was assessed and recorded for 48 hours. Percent survival at 48 hours was recorded and PD50 (mg/kg) was determined for each compound tested.

[3] = tested on: K. pneumoniae ESBL Isolate KP453; test: Murine kidney infection model, K. pneumoniae ESBL isolate KP453; conditions: Klebsiella pneumoniae, po, 36 h, BALB/c mice, PO 50 mg/kg at 9 and 24 hours post infection; read-out: KP453 ESBL UTI PO, log10 reduction in CFUs in the kidney versus untreated controls
Description: as §1
Compounds were also tested in BALB/c murine kidney infection model challenged with levofloxacin-resistant, ESBL^+ strain KP453 via intravenous injection with 2% carageenen. At 9 and 24 hours post infection mice were treated orally with 50 mg/kg of test compound. For IV administration, test compounds were dosed at 20 mg/kg. At 36 hours following initiation of treatment, mice were euthanized and bacterial reduction in the kidney was quantified by plating homogenates. Results are reported in Table D as log10 reduction in colony forming units (CFUs) in the kidney versus untreated controls (receiving no test compound).

[4] = Pharmacokinetic studies in rats; conditions: rat, plasma, male Sprague Dawley rats, fasted
Description: Pharmacokinetic Studies in Rats Test compounds were evaluated in fasted (no food for 18 hours prior to dosing) male Sprague Dawley rats (3 animals per group) by administration of 1 mg/kg intravenously into the jugular vein and […] by oral gavage. Ten plasma samples were drawn for each dosing route up to 24 hours into heparin-coated vacutainer tubes. The plasma concentrations of the test compounds were quantified by LC/MS/MS using an internal standards. WinNONLIN was used to determine PK parameters ±standard deviation (AUC, Cmax, CL, Vss and % oral bioavailabilty (% F) and are set forth in Table F.

[5] = ATCC13709, iv, 48 h, CD-1 female mice, IV 3 mg/kg one hour post infection, survival at 48 hours
[6] = ATCC13709, po, 48 h, CD-1 female mice, PO 30 mg/kg one hour post infection, survival at 48 hours
[7] = ATCC13709, CD-1 female mice, PO, read-out: SA Smith septicemia PD50 PO

| SMILES | responders at 3 mg/kg [2, 5] [%] | responders at 30 mg/kg [2, 6] [%] | also measured |
| --- | --- | --- | --- |
| CN(C)[C@@H]1C(O)=C(C(N)=O)C(=O)[C@@]2(O)C(O)=C3C(=O)c4c(O)cc(CN5CCCC5)c(F)c4C[C@H]3C[C@@H]12 [Compound S3-5-5] | 100 | 100 | log reduction at 2 mg/kg [1]: 2.26; log reduction at 50 mg/kg [3]: 1.01 |
| CN(C)[C@@H]1C(O)=C(C(N)=O)C(=O)[C@@]2(O)C(O)=C3C(=O)c4c(O)cc(CN(C)C(C)(C)C5CC5)c(F)c4C[C@H]3C[C@@H]12 [Compound S2-4-29] | 100 | 100 | ED50 ([2]; ATCC13709, CD-1 female mice, IV, read-out: SA Smith septicemia PD50 IV): 1 mg/kg; ED50 [2, 7]: 3.5 mg/kg; clearance ([4]; IV 1 mg/kg, read-out: Cl, IV Rat PK): 26.5 mL/min/kg; bioavailability ([4]; oral 10 mg/kg vs IV 1 mg/kg, read-out: % F (oral bioavailability), Oral Rat PK): 25.4%; AUC ([4]; IV 1 mg/kg, read-out: AUC, IV Rat PK): 616 ng·h/mL; Cmax ([4]; IV 1 mg/kg, read-out: Cmax, IV Rat PK): 112 ng/mL; AUC ([4]; oral gavage 10 mg/kg, read-out: AUC, Oral Rat PK): 1600 ng·h/mL |
| C[C@H]1CCCCN1Cc1cc(O)c2c(c1F)C[C@H]1C[C@H]3[C@H](N(C)C)C(O)=C(C(N)=O)C(=O)[C@@]3(O)C(O)=C1C2=O [Compound S2-4-65] | 100 | 100 | log reduction at 2 mg/kg [1]: 3.18; log reduction at 12 mg/kg ([1]; PO @ 12 mpk): 4.61; ED50 [2, 7]: 8.4 mg/kg; log reduction at 50 mg/kg [3]: 2.28 |
| CCN(Cc1cc(O)c2c(c1Cl)C[C@H]1C[C@H]3[C@H](N(C)C)C(O)=C(C(N)=O)C(=O)[C@@]3(O)C(O)=C1C2=O)[C@H](C)C(C)(C)C [Compound S15-13-122] |  |  | log reduction at 2 mg/kg [1]: 2.64; log reduction at 50 mg/kg [3]: 1.84 |
| CN(C)[C@@H]1C(O)=C(C(N)=O)C(=O)[C@@]2(O)C(O)=C3C(=O)c4c(O)cc(CN5CCCC5(C)C)c(Cl)c4C[C@H]3C[C@@H]12 [Compound S15-13-4] | 100 | 100 | log reduction at 2 mg/kg [1]: 3.17; ED50 [2, 7]: 6.2 mg/kg; log reduction at 50 mg/kg [3]: 1.69 |
| CCC(C)(C)N(C)Cc1cc(O)c2c(c1OC)C[C@H]1C[C@H]3[C@H](N(C)C)C(O)=C(C(N)=O)C(=O)[C@@]3(O)C(O)=C1C2=O [Compound S24-9-19] | 100 | 100 |  |
| CN(C)[C@@H]1C(O)=C(C(N)=O)C(=O)[C@@]2(O)C(O)=C3C(=O)c4c(O)cc(CN5CC6CCCC6C5)c(Cl)c4C[C@H]3C[C@@H]12 (stereo partly shown) [Compound S15-13-184] | 17 | 0 |  |
| CN(C)[C@@H]1C(O)=C(C(N)=O)C(=O)[C@@]2(O)C(O)=C3C(=O)c4c(O)cc(CN5CCCC5)c(Cl)c4C[C@H]3C[C@@H]12 [Compound S15-13-187] | 100 | 100 | log reduction at 3 mg/kg ([1]; PO @ 3 mpk): 3.46 |
| C[C@@H]1CCC[C@H](C)N1Cc1cc(O)c2c(c1F)C[C@H]1C[C@H]3[C@H](N(C)C)C(O)=C(C(N)=O)C(=O)[C@@]3(O)C(O)=C1C2=O [Compound S2-4-66] | 100 | 100 | ED50 [2, 7]: 8.5 mg/kg |
| CN(C)[C@@H]1C(O)=C(C(N)=O)C(=O)[C@@]2(O)C(O)=C3C(=O)c4c(O)cc(NC(=O)CN5CCCC5)cc4C[C@H]3C[C@@H]12 [Compound S21-12-1] | 100 | 33 |  |
| CN(C)[C@@H]1C(O)=C(C(N)=O)C(=O)[C@@]2(O)C(O)=C3C(=O)c4c(O)cc(CNC5C6CC7CC(C6)CC5C7)c(F)c4C[C@H]3C[C@@H]12 (stereo partly shown) [Compound S1-14-28] | 33 | 17 |  |
| CN(C)[C@@H]1C(O)=C(C(N)=O)C(=O)[C@@]2(O)C(O)=C3C(=O)c4c(O)cc(CN5CCOCC5)c(Cl)c4C[C@H]3C[C@@H]12 [Compound S15-13-17] | 100 | 67 |  |
| CC(C)N(Cc1cc(O)c2c(c1Cl)C[C@H]1C[C@H]3[C@H](N(C)C)C(O)=C(C(N)=O)C(=O)[C@@]3(O)C(O)=C1C2=O)CC1CC1 [Compound S15-13-215] | 50 | 50 |  |
| C[C@@H]1CCC[C@H](C)N1Cc1cc(O)c2c(c1Cl)C[C@H]1C[C@H]3[C@H](N(C)C)C(O)=C(C(N)=O)C(=O)[C@@]3(O)C(O)=C1C2=O [Compound S15-13-221] | 33 | 50 |  |
| CCN(Cc1cc(O)c2c(c1F)C[C@H]1C[C@H]3[C@H](N(C)C)C(O)=C(C(N)=O)C(=O)[C@@]3(O)C(O)=C1C2=O)CC1CCCC1 [Compound S2-4-62] | 17 | 25 |  |
| CN(C)c1c(CN2CCCCCC2)cc(O)c2c1C[C@H]1C[C@H]3[C@H](N(C)C)C(O)=C(C(N)=O)C(=O)[C@@]3(O)C(O)=C1C2=O [Compound S16-10-177] | 100 | 100 |  |
| CN(C)[C@@H]1C(O)=C(C(N)=O)C(=O)[C@@]2(O)C(O)=C3C(=O)c4c(O)cc(CN(CCF)CC5CC5)c(F)c4C[C@H]3C[C@@H]12 [Compound S1-14-31] |  |  | responders at 3 mg/kg ([2]; ATCC13709, iv, 48 h): 0%; responders at 30 mg/kg ([2]; ATCC13709, po, 48 h): 0% |
| CN(C)c1c(CN(C)C2(C)CCC2)cc(O)c2c1C[C@H]1C[C@H]3[C@H](N(C)C)C(O)=C(C(N)=O)C(=O)[C@@]3(O)C(O)=C1C2=O [Compound S16-10-107] | 100 | 100 |  |
| CN(C)[C@@H]1C(O)=C(C(N)=O)C(=O)[C@@]2(O)C(O)=C3C(=O)c4c(O)cc(CN5CCCCC56CC6)c(F)c4C[C@H]3C[C@@H]12 [Compound S2-4-11] | 0 | 0 |  |
| CN(C)[C@@H]1C(O)=C(C(N)=O)C(=O)[C@@]2(O)C(O)=C3C(=O)c4c(O)cc(CN5C6CCC5CC6)c(Cl)c4C[C@H]3C[C@@H]12 [Compound S15-13-222] |  |  | responders at 3 mg/kg ([2]; ATCC13709, CD-1 female mice, IV 3 mg/kg one hour post infection, survival at 48 hours): 100%; responders at 30 mg/kg ([2]; ATCC13709, CD-1 female mice, PO 30 mg/kg one hour post infection, survival at 48 hours): 100% |
| CN(C)[C@@H]1C(O)=C(C(N)=O)C(=O)[C@@]2(O)C(O)=C3C(=O)c4c(O)cc(CN(C)C(C)(C)CC(C)(C)C)c(F)c4C[C@H]3C[C@@H]12 [Compound S2-4-30] | 33 |  | ED50 [2, 7]: > 60 mg/kg |
| CC1CCN(Cc2cc(O)c3c(c2Cl)C[C@H]2C[C@H]4[C@H](N(C)C)C(O)=C(C(N)=O)C(=O)[C@@]4(O)C(O)=C2C3=O)CC1 [Compound S15-13-182] | 33 | 67 |  |
| CN(C)[C@@H]1C(O)=C(C(N)=O)C(=O)[C@@]2(O)C(O)=C3C(=O)c4c(O)cc(CN5CCCCCC5)c(C(F)(F)F)c4C[C@H]3C[C@@H]12 [Compound S25-11-56] | 67 | 33 |  |
| CN(C)c1c(CN2CCCC2(C)C)cc(O)c2c1C[C@H]1C[C@H]3[C@H](N(C)C)C(O)=C(C(N)=O)C(=O)[C@@]3(O)C(O)=C1C2=O [Compound S16-10-11] | 100 | 100 | ED50 [2, 7]: 10 mg/kg |
